Laboratory results reported in article PMC5340193 (ChemMedChem, 2017).
Like-named read-outs stand apart in the source and are kept apart here. Starred links: 1 amine or outer side, 2 acyl side, 3 side chain; linkers in the order of their positions; H or OH if unused. Non-standard residues stand in square brackets, D forms with d. Residues, ends and D or L forms follow the SMILES beside them. His(π-(CH2)8Ph) = N[C@@H](Cc1cncn1CCCCCCCCc1ccccc1)C(=O)O; X2 = O=C([C@@H](N[*:1])[C@@H](CCc1ccccc1)CP(=O)(O)O)[*:2]; X1 = CC(C)[C@@H](CP(=O)(O)O)[C@H](N[*:1])C(=O)[*:2]; X3 = CC[C@@H](CP(=O)(O)O)[C@H](N[*:1])C(=O)[*:2]; Abu(4-PO3H2) = N[C@@H](CCP(=O)(O)O)C(=O)O

Key:
[1] = tested on: Plk1; settings: cited from earlier work
[2] = target: T1, Plk3 PBD (Homo sapiens, UniProt Q9H4B4); format: binding
T1 sequence (Q9H4B4 335-646 limits assumed): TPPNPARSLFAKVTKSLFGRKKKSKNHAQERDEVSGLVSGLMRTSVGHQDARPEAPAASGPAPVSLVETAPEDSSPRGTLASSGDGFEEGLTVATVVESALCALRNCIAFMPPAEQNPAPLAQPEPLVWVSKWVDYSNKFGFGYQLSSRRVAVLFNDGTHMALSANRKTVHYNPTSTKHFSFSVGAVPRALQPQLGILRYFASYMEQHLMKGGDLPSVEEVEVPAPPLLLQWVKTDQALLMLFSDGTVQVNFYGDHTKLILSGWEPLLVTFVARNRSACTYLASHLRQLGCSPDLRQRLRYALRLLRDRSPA

[3] = target: full-length Plk1 (Homo sapiens, UniProt P53350); format: binding; settings: for more potent than the parent pThr-containing peptide 5 and its Pmab-containing congener 7 / loss of potency of the Ser to Ala variants relative to 21 and 23: full-length Plk1 competitive ELISA
Sequence of full-length Plk1 (P53350 whole entry): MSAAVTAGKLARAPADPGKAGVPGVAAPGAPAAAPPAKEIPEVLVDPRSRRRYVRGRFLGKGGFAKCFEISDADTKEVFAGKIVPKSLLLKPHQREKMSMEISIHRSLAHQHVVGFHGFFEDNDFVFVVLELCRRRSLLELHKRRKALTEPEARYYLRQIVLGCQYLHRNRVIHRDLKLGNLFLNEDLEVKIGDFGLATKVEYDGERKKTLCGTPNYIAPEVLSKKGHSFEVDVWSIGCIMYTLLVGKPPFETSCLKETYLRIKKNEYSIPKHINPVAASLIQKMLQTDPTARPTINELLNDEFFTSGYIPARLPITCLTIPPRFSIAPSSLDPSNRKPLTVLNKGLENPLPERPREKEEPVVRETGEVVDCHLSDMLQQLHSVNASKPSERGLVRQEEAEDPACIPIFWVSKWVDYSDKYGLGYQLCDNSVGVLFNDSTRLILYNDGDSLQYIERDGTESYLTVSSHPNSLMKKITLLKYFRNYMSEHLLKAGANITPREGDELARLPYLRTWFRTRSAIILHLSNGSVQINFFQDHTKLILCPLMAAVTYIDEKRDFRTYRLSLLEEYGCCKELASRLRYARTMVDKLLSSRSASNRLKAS

[4] = target: Plk1 PBD (Homo sapiens, UniProt P53350); format: binding
Sequence of Plk1 PBD (P53350 326-603 limits assumed): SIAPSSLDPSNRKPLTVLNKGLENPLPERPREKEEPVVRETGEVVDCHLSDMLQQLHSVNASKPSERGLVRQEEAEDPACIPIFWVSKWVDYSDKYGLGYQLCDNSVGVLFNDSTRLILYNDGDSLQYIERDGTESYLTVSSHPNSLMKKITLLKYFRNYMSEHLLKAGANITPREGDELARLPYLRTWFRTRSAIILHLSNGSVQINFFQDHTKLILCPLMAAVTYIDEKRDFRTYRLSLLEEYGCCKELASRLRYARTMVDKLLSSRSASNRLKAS

[5] = target: T2, Plk2 PBD (Homo sapiens, UniProt Q9NYY3); format: binding
T2 sequence (Q9NYY3 355-685 limits assumed): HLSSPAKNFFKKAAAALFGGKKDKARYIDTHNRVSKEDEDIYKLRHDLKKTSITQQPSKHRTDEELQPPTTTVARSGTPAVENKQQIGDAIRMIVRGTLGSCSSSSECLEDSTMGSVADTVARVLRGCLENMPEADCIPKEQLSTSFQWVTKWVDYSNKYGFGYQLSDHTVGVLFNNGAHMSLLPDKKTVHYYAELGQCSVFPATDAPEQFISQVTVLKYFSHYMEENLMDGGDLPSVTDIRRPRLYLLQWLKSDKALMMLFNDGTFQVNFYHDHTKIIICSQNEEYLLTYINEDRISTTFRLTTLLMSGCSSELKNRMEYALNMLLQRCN

[6] = full-length Plk1, competitive ELISA, average ± SEM (n = 5)

Row | SMILES | IC50 [2] [µM] | IC50 [3] [µM] | IC50 [4] [µM] | IC50 [5] [µM] | also measured
1 | CC(=O)N1CCC[C@H]1C(=O)N[C@@H](CC(C)C)C(=O)N[C@@H](Cc1cncn1CCCCCCCCc1ccccc1)C(=O)N[C@@H](CO)C(=O)N[C@H](C(N)=O)[C@@H](C)OP(=O)(O)O [compound 5] | – | – | – | – | IC50 values in competitive ELISA assays against Plk1 [1]: low-nanomolar
2 | CC(=O)N1CCC[C@H]1C(=O)N[C@@H](CC(C)C)C(=O)N[C@@H](Cc1cncn1CCCCCCCCc1ccccc1)C(=O)N[C@@H](CO)C(=O)N[C@H](C(N)=O)[C@@H](C)CP(=O)(O)O [compound 7, reference compound] | 4.4 | – | – | – | inhibitory potency on replacement of the pThr residue in 5 with Pmab [1]: complete retention of inhibitory potency
3 | CC(=O)N1CCC[C@H]1C(=O)N[C@@H](CC(C)C)C(=O)N[C@@H](Cc1cncn1CCCCCCCCc1ccccc1)C(=O)N[C@@H](CO)C(=O)N[C@@H](CCP(=O)(O)O)C(N)=O [compound 19] (Ac-PL[His(π-(CH2)8Ph)]S[Abu(4-PO3H2)]-NH2; N-terminus and C-terminus assumed) | 8.8 | 1.2 ± 0.3 | 0.011 ± 0.001 | 5.4 | –
4 | CC[C@@H](CP(=O)(O)O)[C@H](NC(=O)[C@H](CO)NC(=O)[C@H](Cc1cncn1CCCCCCCCc1ccccc1)NC(=O)[C@H](CC(C)C)NC(=O)[C@@H]1CCCN1C(C)=O)C(N)=O [compound 20] (Ac-PL[His(π-(CH2)8Ph)]S[X3]-NH2; N-terminus and C-terminus assumed) | – | 0.2 ± 0.06 | – | – | –
5 | CC(=O)N1CCC[C@H]1C(=O)N[C@@H](CC(C)C)C(=O)N[C@@H](Cc1cncn1CCCCCCCCc1ccccc1)C(=O)N[C@@H](CO)C(=O)N[C@H](C(N)=O)[C@H](CP(=O)(O)O)C(C)C [compound 21] (Ac-PL[His(π-(CH2)8Ph)]S[X1]-NH2; N-terminus and C-terminus assumed) | 1.1 | 0.06 ± 0.02 | 0.007 ± 0.001 | 0.36 ± 0.03 | more potent than the parent pThr-containing peptide 5 and its Pmab-containing congener 7 [3]: approximately 3 fold
6 | CC(=O)N1CCC[C@H]1C(=O)N[C@@H](CC(C)C)C(=O)N[C@@H](Cc1cncn1CCCCCCCCc1ccccc1)C(=O)N[C@@H](CO)C(=O)N[C@H](C(N)=O)[C@@H](CCc1ccccc1)CP(=O)(O)O [compound 23] (Ac-PL[His(π-(CH2)8Ph)]S[X2]-NH2; N-terminus and C-terminus assumed) | 1.2 | – | 0.004 ± 0.001 | 0.49 ± 0.05 | more potent than the parent pThr-containing peptide 5 and its Pmab-containing congener 7 [3]: approximately 3 fold
7 | CC(=O)N1CCC[C@H]1C(=O)N[C@@H](CC(C)C)C(=O)N[C@@H](Cc1cncn1CCCCCCCCc1ccccc1)C(=O)N[C@@H](C)C(=O)N[C@H](C(N)=O)[C@H](CP(=O)(O)O)C(C)C [compound 24] (Ac-PL[His(π-(CH2)8Ph)]A[X1]-NH2; N-terminus and C-terminus assumed) | – | – | – | – | IC50 [3, 6]: 11 ± 3 µM; loss of potency of the Ser to Ala variants relative to 21 and 23 [3]: approximate two orders-of-magnitude loss of potency
8 | CC(=O)N1CCC[C@H]1C(=O)N[C@@H](CC(C)C)C(=O)N[C@@H](Cc1cncn1CCCCCCCCc1ccccc1)C(=O)N[C@@H](C)C(=O)N[C@H](C(N)=O)[C@@H](CCc1ccccc1)CP(=O)(O)O [compound 25] (Ac-PL[His(π-(CH2)8Ph)]A[X2]-NH2; N-terminus and C-terminus assumed) | – | – | – | – | IC50 [3, 6]: 70 ± 14 µM; loss of potency of the Ser to Ala variants relative to 21 and 23 [3]: approximate two orders-of-magnitude loss of potency
